This note sets out measurements from patent US9718790B2, “Triazine derivative and pharmaceutical composition having an analgesic activity comprising the same” (SHIONOGI & CO., LTD., priority 2010, dated 2017).

The target in this assay is human P2X3 receptor (Homo sapiens (Human), UniProt P56373). The assay is described as follows: Evaluation of human P2X3 receptor inhibitory activity (Fluo-3 calcium fluorescence, FDSS 3000, ATP stimulation).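 Further: stimulus was 50 nM ATP with fluorescence followed for 3 min, and the response per well was peak post-ATP fluorescence divided by the reading at measurement start.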 Type of assay: cell-based. Particulars: C6BU-1 cells stably expressing human P2X3 receptor.
human P2X3 receptor, sequence (P56373 whole entry): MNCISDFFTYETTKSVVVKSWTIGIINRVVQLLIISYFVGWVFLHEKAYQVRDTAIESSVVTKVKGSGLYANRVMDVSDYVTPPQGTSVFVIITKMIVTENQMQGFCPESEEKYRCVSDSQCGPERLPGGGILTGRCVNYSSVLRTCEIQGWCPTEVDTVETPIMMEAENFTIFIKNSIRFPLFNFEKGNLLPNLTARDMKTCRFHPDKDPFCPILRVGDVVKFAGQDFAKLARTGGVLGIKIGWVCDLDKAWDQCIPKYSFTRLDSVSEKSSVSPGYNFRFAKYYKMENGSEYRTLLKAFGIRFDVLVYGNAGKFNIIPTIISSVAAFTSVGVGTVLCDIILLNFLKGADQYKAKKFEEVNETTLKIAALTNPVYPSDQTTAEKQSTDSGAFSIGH

With `CC(C)(Cn1c(=O)[nH]/c(=N\c2ccc(OCC3CC3)cc2)n(Cc2ccc(Cl)cc2)c1=O)C(=O)O` [Compound I-1263], the IC50 amounted to 25 nM. For `COc1cc(/N=c2\[nH]c(=O)n(CCC(=O)O)c(=O)n2Cc2ccc(C)cc2)ccc1OC(C)C` [Compound I-1264], the IC50 was found to be 31 nM. The same measure for `COc1cc(/N=c2\[nH]c(=O)n(CC(C)(C)C(=O)O)c(=O)n2Cc2ccc(Cl)cc2)ccc1OC(C)C` [Compound I-1265]: 22 nM; for `CCCc1ccc(/N=c2\[nH]c(=O)n(C[C@H](C)C(=O)O)c(=O)n2Cc2ccc(C)cc2)cc1Cl` [Compound I-1267]: 9 nM. The same measure for `Cc1ccc(Cn2c(=O)n(CC(C)(C)C(=O)O)c(=O)[nH]/c2=N\c2ccc(OCC3CC3)cc2)cc1` [Compound I-1268]: 52 nM; for `Cc1ccc(Cn2c(=O)n(C[C@H](C)C(=O)O)c(=O)[nH]/c2=N\c2ccc(Oc3ccnc(C)c3)cc2)cc1` [Compound I-1269]: 8 nM. The same measure for `COc1cc(/N=c2\[nH]c(=O)n(C[C@H](C)C(=O)O)c(=O)n2Cc2ccc(Cl)cc2)ccc1CC(C)C` [Compound I-1270]: 12 nM; for `Cc1ccc(Cn2c(=O)n(CC(C)(C)C(=O)O)c(=O)[nH]/c2=N\c2cccc(C(F)(F)F)c2)cc1` [Compound I-1271]: 32 nM. Take `COC(=O)C(C)(C)Cn1c(=O)[nH]/c(=N\c2ccc(OC(C)C)c(OC)c2)n(Cc2ccc(C)cc2)c1=O` [Compound I-1272]: the half-maximal inhibitory concentration (IC50) was determined as 7 nM.

Turning to `COC(=O)C(C)(C)Cn1c(=O)[nH]/c(=N\c2ccc(OC(C)C)c(OC)c2)n(Cc2ccc(Cl)cc2)c1=O` [Compound I-1273], the IC50 was found to be 7 nM.

Take `COC(=O)[C@@H](C)Cn1c(=O)[nH]/c(=N\c2ccc(Oc3ccnc(C)c3)cc2)n(Cc2ccc(C)cc2)c1=O` [Compound I-1274]: the IC50 came out at 6 nM. For `COC(=O)[C@@H](C)Cn1c(=O)[nH]/c(=N\c2ccc3nc(C)ccc3c2)n(Cc2ccc(C)cc2)c1=O` [Compound I-1275], the IC50 amounted to 6 nM. The same measure for `COC(=O)[C@@H](C)Cn1c(=O)[nH]/c(=N\c2ccc3nc(C)oc3c2)n(Cc2ccc(C)cc2)c1=O` [Compound I-1276]: 78 nM. For `CCCc1ccc(/N=c2\[nH]c(=O)n(C[C@H](C)C(=O)OC)c(=O)n2Cc2ccc(C)cc2)cc1Cl` [Compound I-1277], the IC50 was 15 nM.

Regarding `Cc1ccc(Cn2c(=O)n(C[C@H](C)C(=O)O)c(=O)[nH]/c2=N\c2ccc3nc(C)ccc3c2)cc1` [Compound I-1278], the IC50 worked out at 33 nM. The same measure for `Cc1ccc(Cn2c(=O)n(C[C@H](C)C(=O)O)c(=O)[nH]/c2=N\c2ccc3nc(C)oc3c2)cc1` [Compound I-1279]: 158 nM; for `COc1cc(/N=c2\[nH]c(=O)n(CC(C)(C)C(=O)O)c(=O)n2Cc2ccc(C)cc2)ccc1OC(C)C` [Compound I-1280]: 27 nM; for `COC(=O)[C@@H](C)Cn1c(=O)[nH]/c(=N\c2ccc(OC3CCC3)cc2)n(Cc2ccc(Cl)cc2)c1=O` [Compound I-1281]: 6 nM. The same measure for `CCOC(=O)CCn1c(=O)[nH]/c(=N\c2ccc(OC3CCC3)cc2)n(Cc2ccc(C)cc2)c1=O` [Compound I-1282]: 4 nM; for `CCOC(=O)CCn1c(=O)[nH]/c(=N\c2ccc(OC3CCC3)cc2)n(Cc2ccc(Cl)cc2)c1=O` [Compound I-1283]: 4 nM; for `C[C@@H](Cn1c(=O)[nH]/c(=N\c2ccc(OC3CCC3)cc2)n(Cc2ccc(Cl)cc2)c1=O)C(=O)O` [Compound I-1284]: 15 nM. The same measure for `Cc1ccc(Cn2c(=O)n(CCC(=O)O)c(=O)[nH]/c2=N\c2ccc(OC3CCC3)cc2)cc1` [Compound I-1285]: 51 nM.

Regarding `O=C(O)CCn1c(=O)[nH]/c(=N\c2ccc(OC3CCC3)cc2)n(Cc2ccc(Cl)cc2)c1=O` [Compound I-1286], the IC50 came to 34 nM. The same measure for `CC(C)n1c(=O)n(Cc2ccc(Cl)cc2)c(=O)n(Cc2ccc(C(F)(F)F)cc2)c1=O` [Compound I-1289, 1-(4-chlorobenzyl)-3-isopropyl-5-(4-trifluoromethylbenzyl)-1,3,5-triazinane-2,4,6-trione]: 510 nM; for `CC(C)Oc1cccc(Cn2c(=O)n(Cc3ccc(Cl)cc3)c(=O)n(C(C)C)c2=O)c1` [Compound I-1292]: 445 nM; for `CC(C)Oc1ccc(/N=c2\[nH]c(=O)n(Cc3nnn[nH]3)c(=O)n2Cc2ccc(Cl)cc2)cc1F` [Compound I-1297]: 26 nM.

For `CCOC(=O)CCn1c(=O)[nH]/c(=N\c2ccc(CC(C)C)c(F)c2)n(Cc2ccc(C)cc2)c1=O` [Compound I-1298], the IC50 was found to be 26 nM. The same measure for `Cc1ccc(Cn2c(=O)n(CCC(=O)O)c(=O)[nH]/c2=N\c2ccc(CC(C)C)c(F)c2)cc1` [Compound I-1299]: 51 nM; for `CCOC(=O)CCn1c(=O)[nH]/c(=N\c2ccc(OC(C)C)c(C3CC3)c2)n(Cc2ccc(C)cc2)c1=O` [Compound I-1300]: 18 nM. For `COC(=O)[C@@H](C)Cn1c(=O)[nH]/c(=N\c2ccc(C=C(C)C)nc2)n(Cc2ccc(C)cc2)c1=O` [Compound I-1301], the IC50 came to 514 nM. The same measure for `COC(=O)[C@@H](C)Cn1c(=O)[nH]/c(=N\c2ccc(C(=O)C3CC3)cc2)n(Cc2ccc(C)cc2)c1=O` [Compound I-1302]: 169 nM. With `Cc1ccc(Cn2c(=O)n(CCC(=O)O)c(=O)[nH]/c2=N\c2ccc(OC(C)C)c(C3CC3)c2)cc1` [Compound I-1303], the IC50 turned out to be 66 nM.

Regarding `CC(C)=Cc1ccc(/N=c2\[nH]c(=O)n(C[C@H](C)C(=O)O)c(=O)n2Cc2ccc(C)cc2)cn1` [Compound I-1304], the IC50 was 574 nM. The same measure for `Cc1ccc(Cn2c(=O)n(C[C@H](C)C(=O)O)c(=O)[nH]/c2=N\c2ccc(C(=O)C3CC3)cc2)cc1` [Compound I-1305]: 227 nM; for `CCCc1ccc(/N=c2\[nH]c(=O)n(C[C@H](C)C(=O)OC)c(=O)n2Cc2ccc(Cl)cc2)cc1OC` [Compound I-1306]: 80 nM. The same measure for `COC(=O)[C@H](C)[C@H](C)n1c(=O)[nH]/c(=N\c2ccc(OC(C)C)c(Br)c2)n(Cc2ccc(C)cc2)c1=O` [Compound I-1307]: 7 nM.

Take `CCOC(=O)CCn1c(=O)[nH]/c(=N\c2ccc(CC(C)C)c(OC)c2)n(Cc2ccc(Cl)cc2)c1=O` [Compound I-1308]: the IC50 stood at 29 nM. The same measure for `COC(=O)[C@H](C)[C@H](C)n1c(=O)[nH]/c(=N\c2cccc(C(F)(F)F)c2)n(Cc2ccc(C)cc2)c1=O` [Compound I-1309]: 21 nM; for `COC(=O)[C@@H](C)[C@@H](C)n1c(=O)[nH]/c(=N\c2ccc(OC(C)C)cc2)n(Cc2ccc(C)cc2)c1=O` [Compound I-1310]: 66 nM; for `COC(=O)[C@@H](C)[C@@H](C)n1c(=O)[nH]/c(=N\c2ccc(OC(C)C)c(F)c2)n(Cc2ccc(C)cc2)c1=O` [Compound I-1311]: 23 nM.

With `COC(=O)[C@@H](C)[C@@H](C)n1c(=O)[nH]/c(=N\c2ccc(OC(C)C)c(C)c2)n(Cc2ccc(C)cc2)c1=O` [Compound I-1312], the IC50 came out at 45 nM. The same measure for `CCCOc1ccc(/N=c2\[nH]c(=O)n([C@H](C)[C@H](C)C(=O)OC)c(=O)n2Cc2ccc(C)cc2)cc1` [Compound I-1313]: 62 nM; for `COC(=O)[C@@H](C)[C@@H](C)n1c(=O)[nH]/c(=N\c2ccc(OCC3CC3)cc2)n(Cc2ccc(C)cc2)c1=O` [Compound I-1314]: 59 nM. The same measure for `COC(=O)[C@@H](C)[C@@H](C)n1c(=O)[nH]/c(=N\c2ccc(OC(C)C)c(F)c2)n(Cc2ccc(Cl)cc2)c1=O` [Compound I-1315]: 40 nM; for `COC(=O)[C@@H](C)[C@@H](C)n1c(=O)[nH]/c(=N\c2ccc(OCC3CC3)cc2)n(Cc2ccc(Cl)cc2)c1=O` [Compound I-1316]: 54 nM. With `COC(=O)[C@@H](C)[C@@H](C)n1c(=O)[nH]/c(=N\c2cccc(C(F)(F)F)c2)n(Cc2ccc(Cl)cc2)c1=O` [Compound I-1317], the IC50 came out at 105 nM. The same measure for `COC(=O)[C@@H](C)Cn1c(=O)[nH]/c(=N\c2ccc3ncccc3c2)n(Cc2ccc(Cl)cc2)c1=O` [Compound I-1318]: 544 nM; for `COC(=O)[C@@H](C)Cn1c(=O)[nH]/c(=N\c2ccc3nc(C)c(C)nc3c2)n(Cc2ccc(Cl)cc2)c1=O` [Compound I-1320]: 365 nM; for `COC(=O)[C@@H](C)Cn1c(=O)[nH]/c(=N\c2ccc3nc(C)sc3c2)n(Cc2ccc(Cl)cc2)c1=O` [Compound I-1321]: 7 nM. The same measure for `COC(=O)[C@H](C)[C@H](C)n1c(=O)[nH]/c(=N\c2ccc3nc(C)ccc3c2)n(Cc2ccc(Cl)cc2)c1=O` [Compound I-1322]: 20 nM; for `COC(=O)[C@H](C)[C@H](C)n1c(=O)[nH]/c(=N\c2ccc3oc(C)cc3c2)n(Cc2ccc(Cl)cc2)c1=O` [Compound I-1323]: 33 nM; for `COC(=O)[C@H](C)[C@H](C)n1c(=O)[nH]/c(=N\c2ccc3nc(C)ccc3c2)n(Cc2ccc(C)cc2)c1=O` [Compound I-1324]: 9 nM.

As to `COC(=O)[C@H](C)[C@H](C)n1c(=O)[nH]/c(=N\c2ccc3oc(C)cc3c2)n(Cc2ccc(C)cc2)c1=O` [Compound I-1325], the half-inhibitory concentration (IC50) was determined as 28 nM.

In the case of `CCc1nc2ccc(/N=c3\[nH]c(=O)n(C[C@H](C)C(=O)OC)c(=O)n3Cc3ccc(Cl)cc3)cc2o1` [Compound I-1326], the IC50 was found to be 217 nM. The same measure for `CCCc1nc2ccc(/N=c3\[nH]c(=O)n(C[C@H](C)C(=O)OC)c(=O)n3Cc3ccc(Cl)cc3)cc2o1` [Compound I-1327]: 73 nM; for `CCOC(=O)CCn1c(=O)[nH]/c(=N\c2ccc(OC3CCC3)c(Cl)c2)n(Cc2ccc(C)cc2)c1=O` [Compound I-1328]: 12 nM. Turning to `COC(=O)[C@H](C)[C@H](C)n1c(=O)[nH]/c(=N\c2ccc(OCC(C)C)cc2)n(Cc2ccc(Cl)cc2)c1=O` [Compound I-1329], the IC50 was determined as 49 nM. On to `CCOC(=O)CCn1c(=O)[nH]/c(=N\c2ccc(OC3CCC3)c(Cl)c2)n(Cc2ccc(Cl)cc2)c1=O` [Compound I-1330], for which the IC50 came out at 9 nM.

For orientation: IC50 means the concentration needed to halve the response being measured.
